Assays:
Assay in all cases: radiometric filter-binding kinase assay, Kinase HotSpot
Conditions in all cases: compound 0.5 µM; ATP 10 µM
BMX (human) = BMX (human) (UniProt P51813)
PIM2 (human) = PIM2 (human) (UniProt Q9P1W9)
IGF1R (human) = IGF1R (human) (UniProt P08069)
EPHA1 (human) = EPHA1 (human) (UniProt P21709)
CSNK1G2 (human) = CSNK1G2 (human) (UniProt P78368)
RAF1 (human) = RAF1 (human) (UniProt P04049)
CDK1 CCNB1 (human) = CDK1 CCNB1 (human) (UniProt P06493+P14635)
CDK7 CCNH MNAT1 (human) = CDK7 CCNH MNAT1 (human) (UniProt P50613+P51948+P51946)
LRRK2 (human) = LRRK2 (human) (UniProt Q5S007)
Sequence of LRRK2 (human) (Q5S007 whole entry, looked up): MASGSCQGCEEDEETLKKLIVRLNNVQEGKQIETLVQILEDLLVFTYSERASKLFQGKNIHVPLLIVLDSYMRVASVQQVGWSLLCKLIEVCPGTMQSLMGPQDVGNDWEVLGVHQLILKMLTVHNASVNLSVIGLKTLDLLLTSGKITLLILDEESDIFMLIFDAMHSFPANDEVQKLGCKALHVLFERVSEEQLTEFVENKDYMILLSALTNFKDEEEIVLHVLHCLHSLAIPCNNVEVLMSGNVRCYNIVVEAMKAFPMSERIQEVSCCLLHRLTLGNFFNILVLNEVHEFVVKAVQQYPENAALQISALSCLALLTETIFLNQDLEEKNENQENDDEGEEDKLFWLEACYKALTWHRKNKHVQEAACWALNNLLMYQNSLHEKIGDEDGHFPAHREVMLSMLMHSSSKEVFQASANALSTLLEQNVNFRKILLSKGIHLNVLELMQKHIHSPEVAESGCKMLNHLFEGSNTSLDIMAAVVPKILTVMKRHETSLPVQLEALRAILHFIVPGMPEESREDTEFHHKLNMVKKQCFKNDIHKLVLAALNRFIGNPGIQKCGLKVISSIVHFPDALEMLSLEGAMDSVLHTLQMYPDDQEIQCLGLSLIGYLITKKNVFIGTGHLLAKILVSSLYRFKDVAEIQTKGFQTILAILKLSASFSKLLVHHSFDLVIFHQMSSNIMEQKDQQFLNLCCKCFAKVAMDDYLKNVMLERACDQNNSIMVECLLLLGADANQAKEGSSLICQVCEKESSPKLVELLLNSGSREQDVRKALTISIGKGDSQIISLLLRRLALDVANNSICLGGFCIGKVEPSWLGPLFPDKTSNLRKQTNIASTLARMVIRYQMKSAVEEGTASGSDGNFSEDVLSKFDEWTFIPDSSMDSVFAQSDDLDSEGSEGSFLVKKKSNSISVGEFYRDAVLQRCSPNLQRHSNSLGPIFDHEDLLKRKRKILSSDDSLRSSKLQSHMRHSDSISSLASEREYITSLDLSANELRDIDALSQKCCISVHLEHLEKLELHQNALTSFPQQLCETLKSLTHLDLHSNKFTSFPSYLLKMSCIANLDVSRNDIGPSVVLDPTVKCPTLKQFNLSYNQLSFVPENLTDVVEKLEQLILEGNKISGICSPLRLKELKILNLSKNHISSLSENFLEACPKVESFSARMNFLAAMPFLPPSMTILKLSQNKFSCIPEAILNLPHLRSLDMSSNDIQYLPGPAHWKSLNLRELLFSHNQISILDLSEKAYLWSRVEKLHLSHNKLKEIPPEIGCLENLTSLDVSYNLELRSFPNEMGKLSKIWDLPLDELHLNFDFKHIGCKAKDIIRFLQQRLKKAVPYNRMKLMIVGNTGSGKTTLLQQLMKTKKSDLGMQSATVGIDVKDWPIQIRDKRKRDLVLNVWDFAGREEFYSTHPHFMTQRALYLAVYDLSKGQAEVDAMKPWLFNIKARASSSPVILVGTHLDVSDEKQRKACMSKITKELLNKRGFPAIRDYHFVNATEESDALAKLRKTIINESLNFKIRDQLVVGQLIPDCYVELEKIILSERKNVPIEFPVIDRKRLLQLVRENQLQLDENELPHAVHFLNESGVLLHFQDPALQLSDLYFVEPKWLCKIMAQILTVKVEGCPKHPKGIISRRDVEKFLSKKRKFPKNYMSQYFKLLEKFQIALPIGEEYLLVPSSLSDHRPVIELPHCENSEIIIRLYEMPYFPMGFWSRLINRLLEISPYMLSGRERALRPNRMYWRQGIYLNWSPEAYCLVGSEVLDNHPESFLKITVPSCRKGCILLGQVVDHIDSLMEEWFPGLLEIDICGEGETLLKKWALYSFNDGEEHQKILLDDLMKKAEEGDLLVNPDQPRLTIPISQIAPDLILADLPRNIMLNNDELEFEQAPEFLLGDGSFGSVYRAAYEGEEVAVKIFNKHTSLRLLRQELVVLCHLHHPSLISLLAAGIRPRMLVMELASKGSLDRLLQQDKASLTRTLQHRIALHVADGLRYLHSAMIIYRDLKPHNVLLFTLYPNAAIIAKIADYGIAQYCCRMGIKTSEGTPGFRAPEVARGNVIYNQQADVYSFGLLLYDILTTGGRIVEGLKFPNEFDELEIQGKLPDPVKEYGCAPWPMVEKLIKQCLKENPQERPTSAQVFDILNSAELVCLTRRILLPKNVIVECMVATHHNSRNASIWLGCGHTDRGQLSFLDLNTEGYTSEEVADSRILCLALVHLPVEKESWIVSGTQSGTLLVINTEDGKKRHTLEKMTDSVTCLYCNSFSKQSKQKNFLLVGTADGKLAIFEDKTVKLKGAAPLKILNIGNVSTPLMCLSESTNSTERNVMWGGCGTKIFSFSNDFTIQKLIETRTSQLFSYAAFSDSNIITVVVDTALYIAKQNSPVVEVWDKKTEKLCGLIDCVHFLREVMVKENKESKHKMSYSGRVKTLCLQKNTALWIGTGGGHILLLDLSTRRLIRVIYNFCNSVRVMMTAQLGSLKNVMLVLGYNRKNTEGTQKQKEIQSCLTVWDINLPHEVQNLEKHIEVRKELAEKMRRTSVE

INSRR (human) = INSRR (human) (UniProt P14616)
BLK (human) = BLK (human) (UniProt P51451)
MAP3K9 (human) = MAP3K9 (human) (UniProt P80192)
RPS6KB1 (human) = RPS6KB1 (human) (UniProt P23443)
MAPK8 (human) = MAPK8 (human) (UniProt P45983)
GRK5 (human) = GRK5 (human) (UniProt P34947)
BTK (human) = BTK (human) (UniProt Q06187)
STK10 (human) = STK10 (human) (UniProt O94804)
TAOK3 (human) = TAOK3 (human) (UniProt Q9H2K8)
Sequence of TAOK3 (human) (Q9H2K8 whole entry, looked up): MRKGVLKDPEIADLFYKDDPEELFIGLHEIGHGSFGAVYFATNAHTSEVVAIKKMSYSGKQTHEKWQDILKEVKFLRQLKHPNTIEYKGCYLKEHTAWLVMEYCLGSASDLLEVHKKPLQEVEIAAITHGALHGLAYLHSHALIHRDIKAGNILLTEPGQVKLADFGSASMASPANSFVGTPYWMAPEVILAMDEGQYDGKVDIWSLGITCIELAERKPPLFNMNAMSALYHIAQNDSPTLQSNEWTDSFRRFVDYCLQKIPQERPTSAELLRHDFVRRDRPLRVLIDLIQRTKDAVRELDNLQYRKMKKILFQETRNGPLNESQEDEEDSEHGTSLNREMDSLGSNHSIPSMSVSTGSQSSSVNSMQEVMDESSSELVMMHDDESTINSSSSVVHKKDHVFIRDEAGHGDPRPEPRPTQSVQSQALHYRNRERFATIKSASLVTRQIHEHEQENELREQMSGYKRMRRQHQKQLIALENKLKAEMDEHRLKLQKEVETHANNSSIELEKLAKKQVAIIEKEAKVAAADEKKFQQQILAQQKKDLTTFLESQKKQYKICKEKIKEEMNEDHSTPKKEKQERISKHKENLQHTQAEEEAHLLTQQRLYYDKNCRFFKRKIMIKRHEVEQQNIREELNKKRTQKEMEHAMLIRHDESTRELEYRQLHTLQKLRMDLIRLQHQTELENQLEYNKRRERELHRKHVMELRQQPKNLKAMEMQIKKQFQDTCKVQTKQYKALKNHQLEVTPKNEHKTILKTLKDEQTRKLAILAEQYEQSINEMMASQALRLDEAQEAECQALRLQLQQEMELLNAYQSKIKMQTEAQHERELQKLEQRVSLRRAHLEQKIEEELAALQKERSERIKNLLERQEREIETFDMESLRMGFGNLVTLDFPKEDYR

RIPK2 (human) = RIPK2 (human) (UniProt O43353)
CSNK1G3 (human) = CSNK1G3 (human) (UniProt Q9Y6M4)
FES (human) = FES (human) (UniProt P07332)
CDK3 CCNE1 (human) = CDK3 CCNE1 (human) (UniProt Q00526+P24864)
SRPK1 (human) = SRPK1 (human) (UniProt Q96SB4)
MAP4K4 (human) = MAP4K4 (human) (UniProt O95819)
DYRK4 (human) = DYRK4 (human) (UniProt Q9NR20)
ABL1 (human) = ABL1 (human) (UniProt P00519)
GRK6 (human) = GRK6 (human) (UniProt P43250)
NEK3 (human) = NEK3 (human) (UniProt P51956)
LTK (human) = LTK (human) (UniProt P29376)
Sequence of LTK (human) (P29376 whole entry, looked up): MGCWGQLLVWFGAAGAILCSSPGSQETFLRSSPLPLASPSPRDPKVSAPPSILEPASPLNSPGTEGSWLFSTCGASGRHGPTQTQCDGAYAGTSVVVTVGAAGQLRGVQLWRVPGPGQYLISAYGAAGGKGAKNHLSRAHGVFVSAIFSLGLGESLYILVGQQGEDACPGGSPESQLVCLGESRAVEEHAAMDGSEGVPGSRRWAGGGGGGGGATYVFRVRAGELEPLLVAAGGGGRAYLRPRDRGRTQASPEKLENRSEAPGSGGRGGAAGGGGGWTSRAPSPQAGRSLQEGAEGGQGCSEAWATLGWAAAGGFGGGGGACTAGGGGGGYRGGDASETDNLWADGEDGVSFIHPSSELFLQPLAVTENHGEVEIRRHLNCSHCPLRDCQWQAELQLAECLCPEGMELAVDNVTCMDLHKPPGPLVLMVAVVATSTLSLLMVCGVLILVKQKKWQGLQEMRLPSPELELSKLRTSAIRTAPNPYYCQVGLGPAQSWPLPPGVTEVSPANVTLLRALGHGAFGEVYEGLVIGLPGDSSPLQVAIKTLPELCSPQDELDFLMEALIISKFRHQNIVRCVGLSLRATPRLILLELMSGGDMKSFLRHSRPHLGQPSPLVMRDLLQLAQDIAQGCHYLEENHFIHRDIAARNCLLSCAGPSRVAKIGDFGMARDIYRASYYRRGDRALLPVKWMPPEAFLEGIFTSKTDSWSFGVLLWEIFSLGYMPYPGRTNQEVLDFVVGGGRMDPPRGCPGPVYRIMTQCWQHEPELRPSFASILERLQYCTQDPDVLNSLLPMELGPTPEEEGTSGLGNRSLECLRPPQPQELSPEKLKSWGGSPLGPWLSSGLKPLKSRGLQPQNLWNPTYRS

NEK4 (human) = NEK4 (human) (UniProt P51957)
KDR (human) = KDR (human) (UniProt P35968)
DMPK (human) = DMPK (human) (UniProt Q09013)
TSSK1B (human) = TSSK1B (human) (UniProt Q9BXA7)
AURKC (human) = AURKC (human) (UniProt Q9UQB9)
ROS1 (human) = ROS1 (human) (UniProt P08922)
PLK2 (human) = PLK2 (human) (UniProt Q9NYY3)
MAP3K5 (human) = MAP3K5 (human) (UniProt Q99683)
DYRK1A (human) = DYRK1A (human) (UniProt Q13627)
PAK6 (human) = PAK6 (human) (UniProt Q9NQU5)
PRKCI (human) = PRKCI (human) (UniProt P41743)
FLT1 (human) = FLT1 (human) (UniProt P17948)
MST4 (human) = MST4 (human) (UniProt Q9P289)
Sequence of MST4 (human) (Q9P289 whole entry, looked up): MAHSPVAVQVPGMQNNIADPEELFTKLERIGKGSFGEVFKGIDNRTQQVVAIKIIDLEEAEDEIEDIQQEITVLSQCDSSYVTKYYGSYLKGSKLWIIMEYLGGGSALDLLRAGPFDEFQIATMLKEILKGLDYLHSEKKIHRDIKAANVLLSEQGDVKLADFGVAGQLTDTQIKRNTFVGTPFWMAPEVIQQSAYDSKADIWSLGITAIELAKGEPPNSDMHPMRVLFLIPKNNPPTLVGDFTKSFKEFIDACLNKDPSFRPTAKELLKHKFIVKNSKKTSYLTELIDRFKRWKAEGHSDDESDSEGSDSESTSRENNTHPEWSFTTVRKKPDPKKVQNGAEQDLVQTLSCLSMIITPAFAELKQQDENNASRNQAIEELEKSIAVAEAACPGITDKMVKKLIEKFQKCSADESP

Sequence of PIM2 (human) (Q9P1W9 whole entry, looked up): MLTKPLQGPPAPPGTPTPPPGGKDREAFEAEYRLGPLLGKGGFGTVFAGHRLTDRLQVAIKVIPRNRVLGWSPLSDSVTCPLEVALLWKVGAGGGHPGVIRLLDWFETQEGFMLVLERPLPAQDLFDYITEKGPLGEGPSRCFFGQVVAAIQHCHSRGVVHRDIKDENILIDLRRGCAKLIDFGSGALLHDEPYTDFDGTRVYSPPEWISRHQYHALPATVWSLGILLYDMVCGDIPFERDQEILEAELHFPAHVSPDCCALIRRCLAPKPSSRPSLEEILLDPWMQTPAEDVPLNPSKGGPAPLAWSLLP

COc1ccc2c(c[n+](C)c3c4cc5c(cc4ccc23)OCO5)c1OC
residual activity (BMX (human)): 104%
residual activity (PIM2 (human)): 105%
residual activity (IGF1R (human)): 93.3%
residual activity (EPHA1 (human)): 98.3%
residual activity (CSNK1G2 (human)): 96.8%
residual activity (RAF1 (human)): 96.7%
residual activity (CDK1 CCNB1 (human)): 84.4%
residual activity (CDK7 CCNH MNAT1 (human)): 91.9%
residual activity (LRRK2 (human)): 104%
residual activity (INSRR (human)): 91.8%
residual activity (BLK (human)): 98.7%
residual activity (MAP3K9 (human)): 98.1%
residual activity (RPS6KB1 (human)): 99.8%
residual activity (MAPK8 (human)): 89.8%
residual activity (GRK5 (human)): 110%
residual activity (BTK (human)): 98.6%
residual activity (STK10 (human)): 92.7%
residual activity (TAOK3 (human)): 96.1%
residual activity (RIPK2 (human)): 105%
residual activity (CSNK1G3 (human)): 92.5%
residual activity (FES (human)): 108%
residual activity (CDK3 CCNE1 (human)): 91.7%
residual activity (SRPK1 (human)): 95.3%
residual activity (MAP4K4 (human)): 84.9%
residual activity (DYRK4 (human)): 95.1%
residual activity (ABL1 (human)): 92.7%
residual activity (GRK6 (human)): 104%
residual activity (NEK3 (human)): 95.1%
residual activity (LTK (human)): 95.9%
residual activity (NEK4 (human)): 96.6%
residual activity (KDR (human)): 104%
residual activity (DMPK (human)): 100%
residual activity (TSSK1B (human)): 97.3%
residual activity (AURKC (human)): 93.5%
residual activity (ROS1 (human)): 119%
residual activity (PLK2 (human)): 97.6%
residual activity (MAP3K5 (human)): 114%
residual activity (DYRK1A (human)): 103%
residual activity (PAK6 (human)): 96.1%
residual activity (PRKCI (human)): 98.3%
residual activity (FLT1 (human)): 88.8%
residual activity (MST4 (human)): 89.4%

— the kinase profiling compilation of Christmann-Franck et al. (2016)
